The record followed here is BindingDB's records for doi:10.1016/j.chembiol.2010.02.007 (Harvard Medical School, 2010).

Holding throughout (assay): In Vitro Activity Kinase Assay
The target of assay [1] is Fibroblast growth factor receptor 1 (Homo sapiens, UniProt P11362). The method, then:
(§1) In vitro kinase assay profiled against a panel of different kinase binding assay using Ambit kinomeScan technology. Biochemical IC50 values were determined using the Z'-lyte assays format from Invitrogen.

Assay [2] concerns the target Fibroblast growth factor receptor 2 (Homo sapiens, UniProt P21802). The protocol:
as §1

Assay [3] concerns the target Fibroblast growth factor receptor 3 (Homo sapiens, UniProt P22607). The protocol:
as §1

For assay [4], the target named is Fibroblast growth factor receptor 4 (Homo sapiens, UniProt P22455). The protocol: as §1
For assay [5], the target named is Hepatocyte growth factor receptor (Homo sapiens, UniProt P08581). The protocol:
as §1

Assay [6] has as its target Mast/stem cell growth factor receptor Kit (Homo sapiens, UniProt P10721). The method, then: as §1
Assay [7] deals with Mitogen-activated protein kinase 7 (Homo sapiens, UniProt Q13164). The protocol:
as §1

Assay [8] deals with Platelet-derived growth factor receptor beta (Homo sapiens, UniProt P09619). The method, then: as §1
In assay [9] the target is Tyrosine-protein kinase Blk (Homo sapiens, UniProt P51451). The protocol:
as §1

The target in assay [10] is Vascular endothelial growth factor receptor 1 (Homo sapiens, UniProt P17948). The protocol:
as §1

Assay [11] has as its target Vascular endothelial growth factor receptor 2 (Homo sapiens, UniProt P35968). The protocol:
as §1

In assay [12] the target is Vascular endothelial growth factor receptor 3 (Homo sapiens, UniProt P35916). The protocol:
as §1

Chain of Fibroblast growth factor receptor 2 (P21802 whole entry): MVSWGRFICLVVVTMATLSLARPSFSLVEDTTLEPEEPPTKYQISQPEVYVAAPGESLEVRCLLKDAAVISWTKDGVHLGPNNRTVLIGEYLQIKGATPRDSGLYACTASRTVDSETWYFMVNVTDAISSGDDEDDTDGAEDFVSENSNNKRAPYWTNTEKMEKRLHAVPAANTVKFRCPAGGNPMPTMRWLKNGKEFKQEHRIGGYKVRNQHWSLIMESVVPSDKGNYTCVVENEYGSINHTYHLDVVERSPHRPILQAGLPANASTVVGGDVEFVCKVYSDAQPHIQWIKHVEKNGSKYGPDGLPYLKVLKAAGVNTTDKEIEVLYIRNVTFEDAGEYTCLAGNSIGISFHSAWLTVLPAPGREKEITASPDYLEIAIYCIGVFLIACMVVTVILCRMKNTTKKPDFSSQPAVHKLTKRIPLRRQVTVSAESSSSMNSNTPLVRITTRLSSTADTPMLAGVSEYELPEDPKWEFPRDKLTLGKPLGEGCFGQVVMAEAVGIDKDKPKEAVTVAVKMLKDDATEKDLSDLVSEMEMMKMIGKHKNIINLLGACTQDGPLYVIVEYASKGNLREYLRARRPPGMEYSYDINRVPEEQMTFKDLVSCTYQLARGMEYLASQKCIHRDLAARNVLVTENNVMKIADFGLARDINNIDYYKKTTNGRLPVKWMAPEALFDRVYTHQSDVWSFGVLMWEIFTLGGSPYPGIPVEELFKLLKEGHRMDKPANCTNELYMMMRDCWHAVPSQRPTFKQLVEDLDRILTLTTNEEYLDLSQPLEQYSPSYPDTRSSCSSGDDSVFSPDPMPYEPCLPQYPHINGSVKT
Chain of Fibroblast growth factor receptor 1 (P11362 whole entry): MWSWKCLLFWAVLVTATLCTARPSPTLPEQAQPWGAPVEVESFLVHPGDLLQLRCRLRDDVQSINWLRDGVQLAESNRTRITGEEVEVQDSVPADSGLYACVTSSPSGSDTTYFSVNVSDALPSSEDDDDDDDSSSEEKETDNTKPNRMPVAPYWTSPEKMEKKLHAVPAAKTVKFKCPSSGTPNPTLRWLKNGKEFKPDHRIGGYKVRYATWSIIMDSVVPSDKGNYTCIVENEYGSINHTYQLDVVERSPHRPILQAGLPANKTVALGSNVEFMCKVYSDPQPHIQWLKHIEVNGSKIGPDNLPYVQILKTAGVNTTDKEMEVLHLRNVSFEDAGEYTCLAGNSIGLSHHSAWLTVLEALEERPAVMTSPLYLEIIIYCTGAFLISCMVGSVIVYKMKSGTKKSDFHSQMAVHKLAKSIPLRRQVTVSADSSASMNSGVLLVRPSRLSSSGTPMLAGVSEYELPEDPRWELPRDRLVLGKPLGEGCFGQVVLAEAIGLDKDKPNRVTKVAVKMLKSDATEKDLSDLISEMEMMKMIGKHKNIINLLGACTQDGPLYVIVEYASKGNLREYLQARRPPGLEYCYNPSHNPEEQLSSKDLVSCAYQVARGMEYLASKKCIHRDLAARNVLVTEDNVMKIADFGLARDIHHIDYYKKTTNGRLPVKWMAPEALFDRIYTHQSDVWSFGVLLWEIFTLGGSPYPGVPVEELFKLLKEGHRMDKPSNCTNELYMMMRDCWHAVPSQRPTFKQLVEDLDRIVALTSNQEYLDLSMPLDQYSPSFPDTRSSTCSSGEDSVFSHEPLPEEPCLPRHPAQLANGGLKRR
Chain of Fibroblast growth factor receptor 4 (P22455 whole entry): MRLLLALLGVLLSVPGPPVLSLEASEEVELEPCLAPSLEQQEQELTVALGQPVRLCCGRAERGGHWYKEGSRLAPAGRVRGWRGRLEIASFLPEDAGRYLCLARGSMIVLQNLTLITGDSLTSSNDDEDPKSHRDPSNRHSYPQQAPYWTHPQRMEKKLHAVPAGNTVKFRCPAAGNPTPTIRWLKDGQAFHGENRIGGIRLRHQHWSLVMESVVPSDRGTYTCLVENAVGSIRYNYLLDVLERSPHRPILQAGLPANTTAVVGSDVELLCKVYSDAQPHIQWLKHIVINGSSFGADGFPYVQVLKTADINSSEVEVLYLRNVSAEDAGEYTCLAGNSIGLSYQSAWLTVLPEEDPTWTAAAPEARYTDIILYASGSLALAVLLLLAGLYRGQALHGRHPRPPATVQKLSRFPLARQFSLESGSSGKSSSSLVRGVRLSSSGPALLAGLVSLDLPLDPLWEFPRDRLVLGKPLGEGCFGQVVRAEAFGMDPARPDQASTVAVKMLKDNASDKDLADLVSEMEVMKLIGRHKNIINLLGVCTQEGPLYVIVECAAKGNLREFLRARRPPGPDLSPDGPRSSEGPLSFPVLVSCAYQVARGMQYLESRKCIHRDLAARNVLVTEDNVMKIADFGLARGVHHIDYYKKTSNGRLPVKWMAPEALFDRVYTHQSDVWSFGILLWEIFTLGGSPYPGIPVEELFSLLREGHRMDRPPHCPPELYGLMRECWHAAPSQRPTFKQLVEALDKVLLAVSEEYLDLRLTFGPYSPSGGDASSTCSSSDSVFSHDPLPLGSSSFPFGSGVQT
Chain of Vascular endothelial growth factor receptor 3 (P35916 whole entry): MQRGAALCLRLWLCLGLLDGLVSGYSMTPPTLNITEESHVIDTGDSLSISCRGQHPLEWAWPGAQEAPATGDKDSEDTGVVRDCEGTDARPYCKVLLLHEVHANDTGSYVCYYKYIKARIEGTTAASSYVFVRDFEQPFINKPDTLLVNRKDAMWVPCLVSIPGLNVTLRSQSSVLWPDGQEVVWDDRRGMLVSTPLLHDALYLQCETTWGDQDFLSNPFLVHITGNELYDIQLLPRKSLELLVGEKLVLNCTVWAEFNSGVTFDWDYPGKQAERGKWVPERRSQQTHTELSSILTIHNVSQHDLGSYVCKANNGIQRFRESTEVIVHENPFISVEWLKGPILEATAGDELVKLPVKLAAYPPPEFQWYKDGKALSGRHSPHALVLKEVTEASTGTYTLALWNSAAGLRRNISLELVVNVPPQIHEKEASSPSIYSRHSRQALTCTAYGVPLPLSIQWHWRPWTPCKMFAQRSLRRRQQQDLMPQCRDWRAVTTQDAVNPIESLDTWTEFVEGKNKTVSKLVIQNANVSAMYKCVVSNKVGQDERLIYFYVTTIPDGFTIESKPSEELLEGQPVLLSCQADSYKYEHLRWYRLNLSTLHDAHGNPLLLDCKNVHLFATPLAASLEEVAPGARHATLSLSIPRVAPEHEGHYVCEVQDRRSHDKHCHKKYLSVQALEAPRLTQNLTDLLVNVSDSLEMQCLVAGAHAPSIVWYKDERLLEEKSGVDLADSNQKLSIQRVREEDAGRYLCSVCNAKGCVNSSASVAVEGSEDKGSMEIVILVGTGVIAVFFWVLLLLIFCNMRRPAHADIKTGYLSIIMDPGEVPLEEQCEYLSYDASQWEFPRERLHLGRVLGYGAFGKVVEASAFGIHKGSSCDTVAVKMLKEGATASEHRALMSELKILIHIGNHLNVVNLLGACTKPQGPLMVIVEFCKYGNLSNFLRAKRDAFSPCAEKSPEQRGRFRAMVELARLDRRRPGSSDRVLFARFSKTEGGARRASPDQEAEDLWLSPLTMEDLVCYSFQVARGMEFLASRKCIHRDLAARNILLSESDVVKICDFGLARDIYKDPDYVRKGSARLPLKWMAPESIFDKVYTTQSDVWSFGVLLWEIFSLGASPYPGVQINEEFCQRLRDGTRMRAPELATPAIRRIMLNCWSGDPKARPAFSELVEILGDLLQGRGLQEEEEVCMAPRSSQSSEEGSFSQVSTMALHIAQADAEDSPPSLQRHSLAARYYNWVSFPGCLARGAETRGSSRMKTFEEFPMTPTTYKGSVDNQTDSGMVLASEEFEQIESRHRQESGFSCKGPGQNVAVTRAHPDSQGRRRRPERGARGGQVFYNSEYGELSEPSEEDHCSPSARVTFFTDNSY
Chain of Mast/stem cell growth factor receptor Kit (P10721 whole entry): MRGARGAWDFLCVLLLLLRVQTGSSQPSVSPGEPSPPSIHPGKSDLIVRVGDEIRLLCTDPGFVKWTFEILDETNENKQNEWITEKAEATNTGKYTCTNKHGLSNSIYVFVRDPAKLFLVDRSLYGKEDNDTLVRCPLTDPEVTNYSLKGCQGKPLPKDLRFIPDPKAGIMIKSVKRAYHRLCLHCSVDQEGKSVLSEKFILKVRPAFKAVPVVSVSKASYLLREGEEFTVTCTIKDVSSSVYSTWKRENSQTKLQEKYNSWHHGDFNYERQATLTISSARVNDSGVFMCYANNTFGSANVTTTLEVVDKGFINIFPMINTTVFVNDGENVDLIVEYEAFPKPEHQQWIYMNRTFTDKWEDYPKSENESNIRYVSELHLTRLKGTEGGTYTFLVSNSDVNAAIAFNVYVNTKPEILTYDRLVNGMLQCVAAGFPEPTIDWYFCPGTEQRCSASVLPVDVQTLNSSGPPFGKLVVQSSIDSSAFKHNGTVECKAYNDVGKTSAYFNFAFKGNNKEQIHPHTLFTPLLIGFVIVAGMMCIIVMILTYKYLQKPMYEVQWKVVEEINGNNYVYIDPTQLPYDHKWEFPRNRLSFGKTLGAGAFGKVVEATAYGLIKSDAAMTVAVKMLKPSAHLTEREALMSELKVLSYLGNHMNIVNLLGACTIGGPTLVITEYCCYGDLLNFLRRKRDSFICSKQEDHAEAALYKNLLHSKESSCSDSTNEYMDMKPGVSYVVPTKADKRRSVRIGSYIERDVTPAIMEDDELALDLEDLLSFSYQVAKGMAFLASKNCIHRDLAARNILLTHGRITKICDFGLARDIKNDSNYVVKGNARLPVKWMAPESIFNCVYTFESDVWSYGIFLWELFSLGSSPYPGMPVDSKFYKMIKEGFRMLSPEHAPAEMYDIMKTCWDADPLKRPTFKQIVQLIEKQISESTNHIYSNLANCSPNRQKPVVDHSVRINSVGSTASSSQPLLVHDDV

Take `CCNCCCCNc1ncc2c(n1)N(Cc1cccc(NC(=O)CC)c1)C(=O)N(c1c(Cl)c(OC)cc(OC)c1Cl)C2` [FRIN-1]: the Kd (as a rule, the free concentration of one partner at which half of the binding sites on the other are occupied at equilibrium, for simple one-to-one binding) in assay [1] was 3.1 nM; in assay [2], 5.6 nM; in [3], 5.4 nM; in assay [4], 280 nM; in assay [5], 1400 nM; in assay [6] it was 250 nM. Also, the Kd was 130 nM in assay [7]; 480 nM in assay [8]; 2300 nM in [9]; 49 nM in [10]; 470 nM in [11]; 340 nM in [12].
